Measurements taken from patent US9598364B2, “Indolyl or indolinyl hydroxamate compounds” (Taipei Medical University, priority 2010, dated 2017).
Like-named read-outs stand apart in the source and are kept apart here. Blank lines part the entries; values can stand above or below the compound they belong to.

What was measured:
HA22T (hepatoma) = experiment: SRB assay, HA22T; type: cell-based, Human; settings: HA22T cells, 48 h, read-out: HA22T liver GI50
Method: (§1) Human cancer A549 (non-small cell lung cancer), MDA-MB-231 (estrogen-independent breast cancer), Hep 3B (hepatoma), and HA22T (hepatoma) cells were seeded in 96-well plates in medium with 5% FBS. After 24 h, cells were fixed with 10% trichloroacetic acid (TCA) to represent cell population at the time of compound addition (T0). After additional incubation of DMSO or test compound for 48 h, cells were fixed with 10% TCA and SRB at 0.4% (w/v) in 1% acetic acid was added to stain cells. Unbound SRB was washed out by 1% acetic acid and SRB bound cells were solubilized with 10 mM Trizrna base. The absorbance was read at a wavelength of 515 nm. Using the absorbance measurements of time zero (T0), the control group (C), and the cell growth in the presence of the compound (Ti), the percentage growth was calculated at each of the compound concentrations levels.

Hep 3B (hepatoma) = experiment: SRB assay, Hep 3B; type: cell-based; settings: Homo sapiens, Hep3B, Hep-3B cells, 48 h, read-out: Hep-3B liver GI50
Method: as §1

[1] = test system: A549 (non-small cell lung cancer); experiment: SRB assay, A549; type: cell-based, Human; settings: A549 cells, 48 h
Method: as §1

[2] = test system: MDA-MB-231 (estrogen-independent breast cancer); experiment: SRB assay, MDA-MB-231; type: cell-based; settings: Homo sapiens, MDA-MB-231 cells, 48 h
Method: as §1

U937 = experiment: cells
Method: (§2) 10^4 cells per well were seeded in 96-well culture plates with or without one of the test compounds. Various concentrations for the test compound were examined. […] The drug concentration resulting in total growth inhibition (TGI) is determined when Ti=Tz.
(§3) Cells were seeded in a 96-well flat-bottomed plate (2,500 to 3,000 cells per well). […] After being incubated at 37° C. for 2 h, the supernatant was removed and 200 μl/well of DMSO were added to dissolve the remaining MTT dye. The absorbance at 570 nm in each well was determined using a plate reader.

NB4 = experiment: cells
Method: as §2, §3

K562 = experiment: cells
Method: as §2, §3

HL60 = experiment: cells
Method: as §2, §3

PC-3 cells = experiment: Western blot analysis; type: cell-based; settings: PC-3 cells, 1, 2.5, or 5 μM, 48 hours
Method: PC-3 cells treated with a test compound at 1, 2.5, or 5 μM in RPMI 1640 supplemented with 10% FBS for 48 hours. The cells were collected and sonicated. Protein concentrations in the resultant lysates were determined by a Bradford protein assay kit (Bio-Rad, Hercules, Calif.). The protein lysate, containing the same amount of proteins, were subjected to 10% SDS-polyacrylarnide gel (10%) electrophoresis. The proteins on the gel were then transferred onto an Immobilon-nitrocellulose membrane (Millipore, Bellerica, Mass.) in a semi-dry transfer cell. The transblotted membrane was washed twice with tris-buffered saline containing 0.1% Tween 20 (TBST). After being blocked with TBST containing 5% nonfat milk for 40 min, the membrane was incubated with a primary antibody specific to Acetyl-H3 (antibody obtained from Upstate Biotechnology, Inc., Lake Placid, N.Y.), H3 (Upstate Biotechnology), Acetyl α-tubulin (Sigma-Aldrich, St. Louis, Mo.), phospho-Akt (Serine 473) (Cell Signaling Technologies, Danvers, Mass.), Akt (Cell Signaling Technologies), Acetyl p53 (Santa Cruz Biotechnology, Santa Cruz, Calif.), p53 (Santa Cruz Biotechnology), p21 (Santa Cruz Biotechnology), or α-tubulin (Sigma-Aldrich, St. Louis, Mo.) (1:3000 dilution) in TBST/1% nonfat milk at 4 overnight. The membrane was washed three times with TBST for a total of 15 min and then incubated with a goat anti-rabbit or anti-mouse IgG antibody conjugated with horseradish (diluted 1:3000) for 1 h at room temperature. After being washed for at least three times with TBST, the signal intensity for each protein band was determined.

Kasumi-1 = experiment: MTT cell viability assay, Kasumi-1; type: cell-based
MV4-11 = experiment: cells
Method: as §2, §3

[3] = U937 leukemia cells, MTT, 48 or 72 hr
[4] = NB4 leukemia cells, MTT, 48 or 72 hr
[5] = K562 leukemia cells, MTT, 48 or 72 hr
[6] = HL60 leukemia cells, MTT, 48 or 72 hr
[7] = Kasumi-1 leukemia cells, MTT, 48 or 72 hr
[8] = Homo sapiens, U-937, read-out: LC50
[9] = Homo sapiens, NB-4, read-out: LC50
[10] = Homo sapiens, K562, read-out: LC50

GI50 (HA22T (hepatoma); Homo sapiens): 0.54 µM | GI50 (Hep 3B (hepatoma)): 0.14 µM | GI50 ([1]; Homo sapiens): 0.32 µM | GI50 [2]: 0.16 µM
SMILES: COc1ccc(S(=O)(=O)N2CCc3cc(C=CC(=O)NO)ccc32)cc1 [Compound 13, N-hydroxy-3-[1-(4-methoxy-benzenesulfonyl)-2,3-dihydro-1H-indol-5-yl]-acrylamide]

GI50 (HA22T (hepatoma); Homo sapiens): 0.62 µM | GI50 (Hep 3B (hepatoma)): 0.16 µM | GI50 ([1]; Homo sapiens): 0.32 µM | GI50 [2]: 0.19 µM
SMILES: COc1ccc(S(=O)(=O)N2CCc3cc(C=CC(=O)NO)ccc32)cc1OC [Compound 17, 3-[1-(3,4-dimethoxy-benzenesulfonyl)-2,3-dihydro-1H-indol-5-yl]-N-hydroxy-acrylamide]

GI50 (HA22T (hepatoma); Homo sapiens): 1.98 µM | GI50 (Hep 3B (hepatoma)): 0.56 µM | GI50 ([1]; Homo sapiens): 2.12 µM | GI50 [2]: 0.75 µM
SMILES: O=C(C=Cc1ccc2c(ccn2S(=O)(=O)c2ccc([N+](=O)[O-])cc2)c1)NO [Compound 6, N-hydroxy-3-[1-(4-nitro-benzenesulfonyl)-1H-indol-5-yl]-acrylamide]

GI50 (HA22T (hepatoma); Homo sapiens): > 10 µM | GI50 (Hep 3B (hepatoma)): > 10 µM | GI50 ([1]; Homo sapiens): > 10 µM | GI50 [2]: > 10 µM
SMILES: Nc1ccc(S(=O)(=O)N2CCc3cc(C=CC(=O)NO)ccc32)cc1 [Compound 16, 3-[1-(4-amino-benzenesulfonyl)-2,3-dihydro-1H-indol-5-yl]-N-hydroxy-acrylamide]

GI50 (HA22T (hepatoma); Homo sapiens): 1.2 µM | GI50 (Hep 3B (hepatoma)): 0.25 µM | GI50 ([1]; Homo sapiens): 0.6 µM | GI50 [2]: 0.37 µM
SMILES: O=C(C=Cc1ccc2c(c1)CCN2S(=O)(=O)c1ccc(F)cc1)NO [Compound 14, 3-[1-(4-fluoro-benzenesulfonyl)-2,3-dihydro-1H-indol-5-yl]-N-hydroxy-acrylamide]

GI50 (HA22T (hepatoma); Homo sapiens): 1.56 µM | GI50 (Hep 3B (hepatoma)): 0.55 µM | GI50 ([1]; Homo sapiens): 1.31 µM | GI50 [2]: 0.75 µM
SMILES: COc1ccc(S(=O)(=O)n2ccc3cc(C=CC(=O)NO)ccc32)cc1 [Compound 4, N-hydroxy-3-[1-(4-methoxy-benzenesulfonyl)-1H-indol-5-yl]-acrylamide]

Second part, the compound before the results:

SMILES: COc1ccc(S(=O)(=O)n2ccc3cc(C=CC(=O)NO)ccc32)cc1OC [Compound 8, 3-[1-(3,4-dimethoxy-benzenesulfonyl)-1H-indol-5-yl]-N-hydroxy-acrylamide]
GI50 (HA22T (hepatoma); Homo sapiens): 0.93 µM | GI50 (Hep 3B (hepatoma)): 0.36 µM | GI50 ([1]; Homo sapiens): 0.93 µM | GI50 [2]: 0.37 µM

SMILES: O=C(C=Cc1ccc2c(ccn2S(=O)(=O)c2ccc(F)cc2)c1)NO [Compound 5, 3-[1-(4-fluoro-benzenesulfonyl)-1H-indol-5-yl]-N-hydroxy-acrylamide]
GI50 (HA22T (hepatoma); Homo sapiens): 2.3 µM | GI50 (Hep 3B (hepatoma)): 0.64 µM | GI50 ([1]; Homo sapiens): 1.59 µM | GI50 [2]: 0.66 µM

SMILES: Nc1ccc(S(=O)(=O)n2ccc3cc(C=CC(=O)NO)ccc32)cc1 [Compound 7, 3-[1-(4-Amino-benzenesulfonyl)-1H-indol-5-yl]-N-hydroxy-acrylamide]
GI50 (HA22T (hepatoma); Homo sapiens): > 10 µM | GI50 (Hep 3B (hepatoma)): > 10 µM | GI50 ([1]; Homo sapiens): > 10 µM | GI50 [2]: > 10 µM

SMILES: O=C(CCCCCCC(=O)Nc1ccccc1)NO [SAHA, reference compound]
CC50 (U937): 5.85 µM | GI50 (U937; [3]): 0.59 µM | TGI (U937; [3]): 2.0069 µM | CC50 (NB4): 0.928 µM | GI50 (NB4; [4]): 0.303 µM | TGI (NB4; [4]): 0.6158 µM | CC50 (K562): > 10 µM | GI50 (K562; [5]): > 10 µM | TGI (K562; [5]): >10 µM | GI50 (HL60; [6]): 0.455 µM | TGI (HL60; [6]): 0.8119 µM | H3 expression (PC-3 cells): upregulated | histone deacetylation (PC-3 cells): inhibited | tubulin acetylation (PC-3 cells): upregulated | GI50 (HA22T (hepatoma)): 2.24 µM | CC50 (Kasumi-1): 0.917 µM | TGI (Kasumi-1; [7]): 0.60475 µM | GI50 [1]: 2.37 µM

SMILES: O=C(C=Cc1ccc2c(c1)CCN2S(=O)(=O)c1ccccc1)NO [Compound 12, 3-(1-benzenesulfonyl-2,3-dihydro-1H-indol-5-yl)-N-hydroxy-acrylamide]
GI50 (U937; Homo sapiens, U-937): 0.0547 µM | CC50 (U937; [8]): > 10 µM | TGI (U937; [3]): 8.33 µM | GI50 (NB4; Homo sapiens, NB-4): 0.0315 µM | CC50 (NB4; [9]): 0.091 µM | TGI (NB4; [4]): 0.0612 µM | GI50 (MV4-11; Homo sapiens, MV4-11): 0.0131 µM | CC50 (MV4-11; Homo sapiens, MV4-11, read-out: LC50): 0.0872 µM | TGI (MV4-11; MV4-11 leukemia cells, MTT, 48 or 72 hr): 0.0502 µM | GI50 (K562; Homo sapiens, K562): 0.149 µM | CC50 (K562; [10]): > 10 µM | TGI (K562; [5]): 0.982 µM | TGI (HL60; [6]): 0.0653 µM | GI50 (HL60; Homo sapiens, HL-60): 0.0329 µM | H3 expression (PC-3 cells): upregulated | histone deacetylation (PC-3 cells): inhibited | tubulin acetylation (PC-3 cells): upregulated | GI50 (HA22T (hepatoma); Homo sapiens): 0.62 µM | GI50 (Hep 3B (hepatoma)): 0.21 µM | GI50 ([1]; Homo sapiens): 0.7 µM | GI50 [2]: 0.25 µM

SMILES: O=C(C=Cc1ccc2c(c1)CCN2S(=O)(=O)c1ccc([N+](=O)[O-])cc1)NO [Compound 15, N-hydroxy-3-[1-(4-nitro-benzenesulfonyl)-2,3-dihydro-1H-indol-5-yl]-acrylamide]
GI50 (HA22T (hepatoma); Homo sapiens): 0.74 µM | GI50 (Hep 3B (hepatoma)): 0.28 µM | GI50 ([1]; Homo sapiens): 0.8 µM | GI50 [2]: 0.45 µM

SMILES: O=C(C=Cc1ccc2c(ccn2S(=O)(=O)c2ccccc2)c1)NO [Compound 3, 3-(1-Benzenesulfonyl-1H-indol-5-yl)-N-hydroxy-acrylamide]
GI50 (U937; Homo sapiens, U-937): 0.162 µM | CC50 (U937; [8]): 0.718 µM | TGI (U937; [3]): 0.44 µM | GI50 (NB4; Homo sapiens, NB-4): 0.223 µM | CC50 (NB4; [9]): 0.779 µM | TGI (NB4; [4]): 0.5009 µM | GI50 (K562; Homo sapiens, K562): 9.02 µM | CC50 (K562; [10]): > 10 µM | TGI (K562; [5]): >10 µM | TGI (HL60; [6]): 0.5358 µM | GI50 (HL60; Homo sapiens, HL-60): 0.242 µM | H3 expression (PC-3 cells): upregulated | histone deacetylation (PC-3 cells): inhibited | tubulin acetylation (PC-3 cells): upregulated | GI50 (HA22T (hepatoma); Homo sapiens): 1.15 µM | GI50 (Hep 3B (hepatoma)): 0.41 µM | GI50 (Kasumi-1; Homo sapiens, Kasumi-1 leukemia cells, MTT, 48 or 72 hr): 0.0966 µM | CC50 (Kasumi-1; Homo sapiens, Kasumi-1 leukemia cells, MTT, 48 or 72 hr, read-out: LC50 (the source's name)): 0.694 µM | TGI (Kasumi-1; [7]): 0.393 µM | GI50 ([1]; Homo sapiens): 0.96 µM | GI50 [2]: 0.48 µM

SMILES: Nc1ccn([C@@H]2O[C@H](CO)[C@@H](O)[C@@H]2O)c(=O)n1 [Ara-C, reference compound]
GI50 (U937; [3]): 0.0466 µM | TGI (U937; [3]): 0.1097 µM | CC50 (U937; read-out: LC50, U937 leukemia cells, MTT, 48 or 72 hr): 0.665 µM | GI50 (NB4; [4]): 0.448 µM | TGI (NB4; [4]): 2.324 µM | CC50 (NB4; read-out: LC50, NB4 leukemia cells, MTT, 48 or 72 hr): 7.32 µM | GI50 (K562; [5]): > 10 µM | TGI (K562; [5]): >10 µM | CC50 (K562; read-out: LC50, K562 leukemia cells, MTT, 48 or 72 hr): > 10 µM | GI50 (HL60; [6]): 0.445 µM | TGI (HL60; [6]): 4.3443 µM | GI50 (Kasumi-1; [7]): > 10 µM | TGI (Kasumi-1; [7]): >10 µM | CC50 (Kasumi-1; Kasumi-1 leukemia cells, MTT, 48 or 72 hr, read-out: LC50 (the source's name)): > 10 µM
